Laboratory results: patent publication US20120034165A1, “IMAGING THE CENTRAL NERVOUS SYSTEM WITH PURINERGIC P2X7 RECEPTOR BINDING AGENTS” (priority 2009, published 2012)

Target: T1, P2X7 receptor (Homo sapiens, UniProt Q99572)
T1 construct: expressed in transfected cells; host or cells: HEK.293 cells, transient transfection with Lipofectamine LTX
T1 sequence (Q99572 1-595): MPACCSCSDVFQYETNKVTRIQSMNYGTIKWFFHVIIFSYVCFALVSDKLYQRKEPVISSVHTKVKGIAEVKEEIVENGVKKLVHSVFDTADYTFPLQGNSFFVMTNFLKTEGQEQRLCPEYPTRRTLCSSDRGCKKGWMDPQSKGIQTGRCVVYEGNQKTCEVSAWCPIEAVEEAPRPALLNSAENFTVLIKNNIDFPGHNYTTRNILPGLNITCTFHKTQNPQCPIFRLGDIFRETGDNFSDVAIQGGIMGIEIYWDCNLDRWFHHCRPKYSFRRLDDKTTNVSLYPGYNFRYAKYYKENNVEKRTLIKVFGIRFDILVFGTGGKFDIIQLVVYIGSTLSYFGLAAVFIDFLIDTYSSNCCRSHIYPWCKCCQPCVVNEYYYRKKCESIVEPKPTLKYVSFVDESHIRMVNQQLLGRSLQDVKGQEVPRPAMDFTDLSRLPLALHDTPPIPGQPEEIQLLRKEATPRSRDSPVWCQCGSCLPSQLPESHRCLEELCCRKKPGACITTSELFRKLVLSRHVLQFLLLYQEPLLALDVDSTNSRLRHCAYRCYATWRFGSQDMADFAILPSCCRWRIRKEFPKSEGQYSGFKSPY
Assay: Pore-forming (Yo Pro-1 dye uptake) assay in P2X7 transfected HEK.293 cells, Bz-ATP agonist
Type: cell-based
Conditions: Bz-ATP 30 μM, Yo Pro-1 1 μM, triplicate
Text: A non-radioactive analogue of the Imaging Agent illustrated in Table I was screened in a P2X7 receptor functional assay. This assay is described in Example 3 and is based upon the ability of the P2X7 receptor to form a non-selective pore in P2X7 transfected HEK.293 cells upon activation with an agonist, thereby allowing dye to permeate the cells. The non selective P2X channel antagonist used as a reference inhibitor for the evaluation of the non-radioactive compound of the invention was pyridoxal-phosphate-6-azophenyl-2′,4′-disulfonate (PPADS), and the results of the assay are provided in Table I above.
The assay method used was based on the ability of the DNA binding dye, Yo Pro-1 (quinolinium, 4[3-methyl-2(3H)-benzoxazolylidene)methyl]-1-[3-(trimethyl-ammonio)propyl]-dioxide) to enter through the dilated or “large pore form” of the P2X7 receptor and to bind to intracellular DNA/RNA whereupon it increases fluorescence intensity. Yo Pro-1 was therefore used to quantify inhibition of P2X7 function. This assay was based on the methods published by Michel et al., (B.J. Pharmacol 1998; 125: 1194-1201).
Initially, HEK.293 cells were transiently transfected using LipofectamineTMLTX (Invitrogen) for 72 hrs with P2X7 cDNA. 48 hours prior to use the cells were seeded into poly-D-lysine coated 96-well black-walled, clear bottomed plates, at a density of 30,000 cells/well. Stock solutions of test compound were prepared at a concentration of 40 mM in 100% DMSO.
Following the 48 hour incubation the culture medium was removed from the transfected cells, the cells were washed once and placed in pre-warmed sucrose assay buffer (Sucrose: 280 mM, KCL 5 mM, CaCl2: 0.5 mM, glucose: 10 mM, HEPES: 10 mM, N-methyl-D-glucamine: 10 mM; pH7.4). […] The fluorescence was then read at 485 nm excitation and 530 nm emission.
The non-selective P2X channel antagonist pyrdoxalphosphate-6-azophenyl-2′4′-disulphonic acid (PPADS) was used as a reference inhibitor in the assay. […] For each compound data set, a percentage inhibition value was calculated based on the three assay points generated.

% inhibition (test compound at 100 μM (so in the source)) | SMILES | % inhibition (test compound at 10 μM)
– | Cc1nc(N=Nc2ccc(S(=O)(=O)O)cc2S(=O)(=O)O)c(COP(=O)(O)O)c(C=O)c1O [PPADS, pyridoxal-phosphate-6-azophenyl-2′,4′-disulfonate, reference compound] | 70%
68.0% | Oc1ccccc1CNc1ncnn1-c1cccc(Cl)c1Cl [imaging agent 1] | 77.0%
